Measured values from patent US20210330611A1, “THERAPY FOR NEUROLOGICAL DISEASES/DISORDERS” (priority 2020, published 2021).
Where two headings read alike, the source gives them in different places.

Tests used:
primary rat microglia [1] = experiment: Cell toxicity (dead cells, size <150 μm2) in coated fibrin (cFib) assay; details: primary microglia HTS;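 also: share of dead cells sized under 150 µm2 at 10 µM in fibrin-stimulated microglia HTS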
[2] = system: fibrin- and LPS-induced microglia activation; experiment: cells; type: cell-based, rat
primary rat microglia [3] = system: primary rat microglia
[4] = system: LPS-induced microglia activation; experiment: Image-based assay of LPS-induced microglia activation (HTS and dose response); type: cell-based, rat; details: for inhibition at 10 µM: Rattus norvegicus, Microglia, read-out: LPS % inhibition
[5] = system: fibrin-induced microglia activation; experiment: Image-based assay of fibrin-induced microglia activation (HTS and dose response); type: cell-based, rat; details: primary microglia HTS, fibrin stimulation; for inhibition at 10 µM: Rattus norvegicus, Microglia, read-out: Fibrin % inhibition
[6] = fibrin stimulation, cell size <150 μm2 as marker of toxicity
[7] = classification by fibrin and LPS inhibition in HTS
[8] = cell size >800 μm2 as marker of activation
[9] = fibrin assay, dead cells (size <150 μm2), compounds at 10 μM
[10] = classification by fibrin and LPS inhibition, HTS at 10 μM
[11] = primary microglia HTS, LPS stimulation, compounds at 10 μM
[12] = fibrin assay, dead cells (size <150 μm2)
[13] = quadrant by fibrin and LPS inhibition, HTS at 10 μM

Structure (SMILES) | Fibrin % cell toxicity (primary rat microglia [1]; [6]) | Quadrant (FIG. 5b) [2, 7] | LPS % cell toxicity (primary rat microglia [3]; rat) | Fibrin % cell toxicity (primary rat microglia [1]; [9]) | Quadrant (FIG. 5b) [2, 10] | inhibition at 10 µM [4, 11] | inhibition at 10 µM ([5]; compounds at 10 μM) | further results
NC(=O)C1(N2CCCCC2)CCN(CCCC(=O)c2ccc(F)cc2)CC1 [Pipamperone] | 1% | Q4 | 0% |  |  |  |  | inhibition at 10 µM ([4]; 48 h, primary microglia HTS, LPS stimulation, cell size >800 μm2 as marker of activation): 8%; inhibition at 10 µM [5, 8]: -4%
N[C@@H]1CON=C1O [Cycloserine] |  |  | 0% | 0% | Q4 | 19% | -4% | 
NC[C@H]1O[C@H](O[C@H]2[C@H](O[C@@H]3O[C@H](CO)[C@@H](O)[C@H]3O)[C@@H](O)[C@H](N)C[C@@H]2N)[C@H](N)[C@@H](O)[C@@H]1O.O=S(=O)(O)O [Ribostamycin Sulfate] | 0% | Q4 |  |  |  |  |  | LPS % cell toxicity (primary rat microglia [3]): 0%; LPS % inhibition [4]: 13%; Fibrin % inhibition [5, 8]: −16%
CCC(=O)Oc1ccc2c(c1)CC[C@@H]1[C@@H]2CC[C@]2(C)[C@@H](OC(=O)CC)CC[C@@H]12 [Estradiol Dipropionate] |  |  | 1% | 1% | Q4 | 17% | 0% | 
C=C[C@H]1CN2CC[C@H]1C[C@H]2[C@H](OC(=O)OCC)c1ccnc2ccc(OC)cc12 [Quinine Ethyl Carbonate] | 0% | Q4 | 0% |  |  |  |  | inhibition at 10 µM ([4]; 48 h): -11%; inhibition at 10 µM [5, 8]: -21%
CC(=O)Nc1c(I)cc(I)c(C(=O)O)c1I [Acetrizoic acid] |  |  | 0% |  |  | 9% | 14% | Fibrin % cell toxicity (primary rat microglia [1]; [12]): 1%; Quadrant (FIG. 5b) [2, 13]: Q4
CNCC(=O)c1ccc(O)c(O)c1.Cl [Adrenolone Hydrochloride] |  |  |  |  |  |  |  | Fibrin % cell toxicity (primary rat microglia [1]; [12]): 0%; Quadrant (FIG. 5b) [2, 13]: Q4; LPS % cell toxicity (primary rat microglia [3]): 0%; LPS % inhibition [4, 11]: 32%; Fibrin % inhibition ([5]; compounds at 10 μM): 28%
CN(CCOc1ccc(NS(C)(=O)=O)cc1)CCc1ccc(NS(C)(=O)=O)cc1 [Dofetilide] |  |  | 0% | 1% | Q4 | 5% | -26% | 
CO[C@H]1C[C@H](O[C@H]2[C@H](C)O[C@@H](O[C@@H]3/C(C)=C/C[C@@H]4C[C@@H](C[C@]5(C=C[C@H](C)[C@@H](C6CCCCC6)O5)O4)OC(=O)[C@@H]4C=C(C)[C@@H](O)[C@H]5OC/C(=C\C=C\[C@@H]3C)[C@]54O)C[C@@H]2OC)O[C@@H](C)[C@@H]1O [Doramectin] |  |  |  | 1% | Q4 |  |  | LPS % cell toxicity (primary rat microglia [3]): 0%; LPS % inhibition [4, 11]: 7%; Fibrin % inhibition ([5]; compounds at 10 μM): −9%
CN(C)CCOC(=O)C(c1ccccc1)C1(O)CCCC1 (centres unmarked) [Cyclopentolate] |  |  | 0% | 1% | Q4 | 9% | -8% | 
OC(CCCN1CCCCC1)(c1ccccc1)c1ccccc1 [Diphenidol] |  |  | 0% | 1% | Q4 | -5% | -34% | 
CCN1C[C@]2(COC)[C@H](O)C[C@H](OC)[C@@]34[C@@H]5C[C@@]6(O)[C@H](OC(=O)c7ccccc7)[C@@H]5[C@@](OC(C)=O)([C@@H]([C@H](OC)[C@H]23)[C@@H]14)[C@@H](O)[C@@H]6OC [Aconitine] |  |  | 0% |  |  | 12% | -23% | Fibrin % cell toxicity (primary rat microglia [1]; [12]): 0%; Quadrant (FIG. 5b) [2, 13]: Q4
CCOC(=O)[C@H](CCc1ccccc1)N[C@@H](C)C(=O)N1Cc2ccccc2C[C@H]1C(=O)O [Quinapril] | 1% | Q4 | 0% |  |  |  |  | inhibition at 10 µM ([4]; 48 h): 13%; inhibition at 10 µM [5, 8]: -24%
